The test system of one series is nuclease Bal 31. The experiment in a line: Nuclease resistance-imparting ability for P=O form oligonucleotide. The format is biochemical. The following applies: 2 U Bal 31, 30° C., 60 minutes, peptide 50 μM, oligonucleotide 3 μM. How it is done:
Nuclease resistance-imparting ability for natural (P═O form) oligonucleotide was evaluated. To be more specific, 2 U of nuclease Bal 31 (manufactured by Takara Shuzo) was added to 20 mM Tris-HCl buffer (pH=8) containing 50 μM of the peptide of SEQ ID NO:1 prepared in Example 1, 3 μM of P═O form oligonucleotide prepared in Example 6, 150 mM NaCl, 12 mM MgCl2, and 12 mM CaCl2, and the reaction was allowed to take place at 30° C. for 60 minutes. Next, the oligonucleotide which escaped from the decomposition was extracted with phenol/chloroform, and subjected to electrophoresis by the procedure described in Example 8 to stain the oligonucleotide.

A further series concerns A549. Nature of the series: Luciferase plasmid introduction versus phosphatidyl serine translocation. Type of series: cell-based, human. The source says: (§1) A cell line established from monkey kidney (Vero cell) and a human bladder cancer cell (T24 cell) purchased from American Type Culture Collection (ATCC) and human lung cancer cell (A549 cell) purchased from Dainippon Pharmaceutical were inoculated on a 24 well culture plate (manufactured by NALGEN NUNC) at 1×10^5 cells/well. Vero cell and A549 cell were cultivated in DMEM (manufactured by Life Technologies Oriental) supplemented with 10% fetal bovine serum (hereinafter referred to as FBS, manufactured by NICHIREI), and T24 cell was cultivated in McCoy's 5a (manufactured by Life Technologies Oriental) supplemented with 10% FBS in 5% CO2 atmosphere at 37° C. for 24 hours. […] The luciferase activity expressed in the cell was then measured by the method instructed in luciferase assay system (manufactured by Promega). […] 20 μL of this cell lysate and 100 μL of the Luciferase Assay Reagent II attached to the kit was added to a fluorescence-measuring plate (Microlite™ 1 plate, manufactured by Dynatech), and after mixing, fluorescence was measured for 1 second by using a multilabel counter (ARVO™ SY1420 MULTILABEL COUNTER, manufactured by Wallac Beltold. […]

Another series relates to T24. The series is described as above. Type of series: cell-based, human.
Description: as §1

A further series concerns Vero. Described as above. The format is cell-based, monkey.
Description: as §1

The next series concerns 21mer oligonucleotide. Nature of the series: Binding ability to oligonucleotide (electrophoresis). As to conditions: charge ratio (+/−ratio) of 10. How it is done:
The 21mer oligonucleotide prepared by the procedure described in Example 6 (final concentration, 6.7 μM) and the peptide prepared by the procedure described in Examples 1 to 3 were mixed in 20 mM Tris-HCl buffer (pH=7.2) containing 150 mM NaCl at a charge ratio (+/−ratio) of 0 to 10, and the mixture was allowed to stand at 37° C. for 30 minutes. Next, 7.5 μL of this solution was mixed with an equal amount of Tris-borate buffer (pH=8.2) containing 80% formamide, and electrophoresis was conducted on 25% polyacrylamide gel containing 7M urea. After the electrophoresis, the gel was stained with 5% aqueous solution of Stains all (manufactured by Funakoshi) containing 50% formamide and washed with water to thereby determine the binding of the oligonucleotide and the peptide.
The +/−ratio (charge ratio) indicated in FIG. 10 is the ratio of the number (+) of the positively-charged groups in the peptide to the number (−) of negatively-charged groups in the nucleic acid. As evident in FIG. 10, the amount of oligonucleotide that became bound to the peptide increased with the increase in the charge ratio (+/−ratio), and the oligonucleotide was fully bound to the peptide at a charge ratio (+/−ratio) of 10. The peptides of SEQ ID NO:2 to SEQ ID NO:24 were also found to bind at a charge ratio (+/−ratio) of 10.

Series [1] is described as follows: Measurement of turbidity in BSA. The format is physicochemical. The following applies: BSA 1%, peptide 50 μM, absorbance at 600 nm. How it is done: The solutions were evaluated for their absorbance at a wavelength of 600 nm by using a spectrophotometer (DU640, manufactured by Beckman).

Here are results for one substance from patent US20040171795A1, “Novel peptides” (priority 2000, published 2004).

As to “SEQ ID NO: 1: peptide having the amino acid sequence of SEQ ID NO:1, made by solid phase synthesis (TRYLRIHPRSWVHQIALRLRYLRIHPRSWVHQIALRS; synthetic peptide using an automatic peptide synthesizer)”, the “nuclease resistance-imparting ability for natural (P═O form) oligonucleotide” value in the series with nuclease Bal 31 was “found to exhibit nuclease resistance-imparting ability”. The Luciferase activity in the series with A549 is 8.7 × 10^4 cps/mg protein; in the series on T24, 7.8 × 10^3 cps/mg protein; with Vero it was 2.5 × 10^6 cps/mg protein. Further, the “binding of oligonucleotide to the peptide” value in the series on 21mer oligonucleotide is “fully bound”. For the same substance, the “OD 600” value in series [1] is listed as 0.03.
